Experiment: Maximum drug dissolved in polymeric micelles
Type: physicochemical
Conditions: room temperature
Experimental: In 100 mg of the lyophilized powder of the polymeric micelles nanoparticles, an alcoholic solution of indomethacin ([Indomethacin]=33 mg/ml) was added with constant stirring to get clear solution of polymeric micelles containing the drug of desired concentration dispersed in aqueous buffer. […] The drug loaded polymeric micelles was then lyophilized to get dry powder for subsequent use.
In 100 mg of dry powder of polymeric micelles, an alcoholic solution of nimesulide ([nimesulide]=10 mg/ml) was added with constant stirring to get clear solution. […] The drug loaded micelles was then lyophilized to get dry powder for subsequent use.

Row | SMILES | Maximum of the drug dissolved in polymeric micelles
1 | CS(=O)(=O)Nc1ccc([N+](=O)[O-])cc1Oc1ccccc1 [nimesulide, N-(4-nitro-2 phenoxyphenyl) methanesulphonamide] | 8 % w/w
2 | COc1ccc2c(c1)c(CC(=O)O)c(C)n2C(=O)c1ccc(Cl)cc1 [indomethacin, 1-(4 chlorobenzoyl)-5 methoxy-2-methyl-1H-indole-3acetic acid] | 10 % w/w

Reference: patent publication US6579519B2, “Sustained release and long residing ophthalmic formulation and the process of preparing the same” (Registrar, University of Delhi, priority 2000, dated 2003)
